Data as given in EP3991726A1, “ANTI-INFLAMMATORY COMPOSITION COMPRISING PALMITOYLETHANOLAMIDE AND PHYCOCYANIN” (priority 2020, dated 2022).

Key:
[1] = tested on: human pulmonary epithelium BEAS-2B; test: MTT test for cytotoxicity; format: cell-based; conditions: tested in the range 10 nM - 1 µM
Experimental: (§1) In a model of human pulmonary epithelium BEAS-2B (ATCC - CRL-9609), PC and PEA were tested in the range 10 nM - 1 µM.

[2] = tested on: human pulmonary epithelium BEAS-2B; test: Cell proliferation by crystal violet colouring; format: cell-based; conditions: tested in the range 10 nM - 1 µM
Experimental: as §1

COX-2 (human) = biological target: T1, COX-2 (human) (Homo sapiens, UniProt P35354); test: COX-2 (human) Inhibitor Screening Assay Kit, in vitro ELISA method; format: biochemical; conditions: Cayman Chemical # 701080
T1 construct: purchased Cayman Chemical 701080
T1 sequence (P35354 18-604): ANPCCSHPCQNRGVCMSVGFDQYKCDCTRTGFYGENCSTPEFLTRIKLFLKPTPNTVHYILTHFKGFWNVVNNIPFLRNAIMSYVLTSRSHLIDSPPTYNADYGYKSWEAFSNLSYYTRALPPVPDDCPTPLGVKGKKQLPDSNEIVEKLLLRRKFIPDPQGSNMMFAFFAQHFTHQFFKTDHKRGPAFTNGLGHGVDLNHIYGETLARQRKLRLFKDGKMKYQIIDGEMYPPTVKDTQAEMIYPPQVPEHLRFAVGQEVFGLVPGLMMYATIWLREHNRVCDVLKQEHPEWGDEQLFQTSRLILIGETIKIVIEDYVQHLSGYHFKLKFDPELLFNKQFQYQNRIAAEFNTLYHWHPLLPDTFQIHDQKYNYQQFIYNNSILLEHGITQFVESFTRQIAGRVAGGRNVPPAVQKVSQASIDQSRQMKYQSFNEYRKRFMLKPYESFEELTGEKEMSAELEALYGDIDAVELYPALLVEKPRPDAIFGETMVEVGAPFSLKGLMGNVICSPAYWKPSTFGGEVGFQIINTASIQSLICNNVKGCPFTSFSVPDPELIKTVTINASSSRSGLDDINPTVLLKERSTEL
Excerpt: Measurement of the IC50 in an in vitro test (ELISA method - COX-2 (human) Inhibitor Screening Assay Kit, # 701080, Cayman Chemical) gave the following results.

[3] = tested on: human pulmonary epithelium cell line BEAS-2B; test: ROS measured as fluorescence emission of intracellular probe DCF-DA after LPS or Poly I:C stimulus; format: cell-based; conditions: stimulus LPS or PIC, PC and PEA 1 µM for 48h, Figure 1
Experimental: (§2) The cells were treated with PC and PEA 1 µM for 48h. The ROS (which are powerful oxidants) were measured as fluorescence emission of the intracellular probe DCF-DA (dichlorofluorescein diacetate). The toxicity was measured as release of an intracellular enzyme (lactate dehydrogenase LDH) in the extracellular medium; the release is proportional to the toxicity and is measured with a spectrophotometer.

[4] = tested on: human pulmonary epithelium cell line BEAS-2B; test: Toxicity as lactate dehydrogenase (LDH) release after LPS or Poly I:C stimulus; format: cell-based; conditions: stimulus LPS or PIC, PC and PEA 1 µM for 48h, Figure 1
Experimental: as §2

[5] = tested on: interleukin 8 (IL-8) transcript; test: IL-8 transcript by real-time PCR after inflammatory stimulus; format: cell-based, human; conditions: BEAS-2B, bacterial (LPS) or viral (PIC) stimulus, PC and PEA 1 µM for 24h, Figure 2
Experimental: The cells were treated with PC and PEA 1 µM for 24h. The interleukin 8 (IL-8) transcript was measured by means of real-time PCR.

[6] = tested on: transcripts for subunits 2 and 4 of complex IV of the mitochondrial respiratory chain (COX2 and COX4) and two subunits of the ATP synthase mitochondrial enzyme …; test: Mitochondrial respiratory chain and ATP synthase transcripts by real-time PCR; format: cell-based, human; conditions: BEAS-2B, bacterial (LPS) or viral (PIC) stimulus, PC and PEA 1 µM for 24h, Figure 3
Experimental: The cells were treated with PC and PEA 1 µM for 24h. The transcripts for subunits 2 and 4 of complex IV of the mitochondrial respiratory chain (COX2 and COX4) and the transcripts for two subunits of the ATP synthase mitochondrial enzyme (ATP mit and ATP n) were measured by means of real-time PCR.

For CCCCCCCCCCCCCCCC(=O)NCCO [PEA, palmitoylethanolamide], the “toxicity (MTT test)” value [1] was “absence of toxicity”, the “effect on cell growth (proliferation, crystal violet)” value [2] was “no effect on cell growth” and the IC50 (COX-2 (human)) was 575 nM. For the same compound, the “oxidative stress (ROS, DCF-DA fluorescence)” value [3] was “protect from oxidative stress”, the “toxicity (LDH release in the extracellular medium)” value [4] was “protect from oxidative stress and toxicity” and the “production of inflammatory cytokines (IL-8 transcript)” value [5] was “reduce the production of inflammatory cytokines”. The “activation of the mitochondrial respiratory burst (COX2, COX4, ATP mit, ATP n transcripts)” value [6] was “reduce activation of the mitochondrial respiratory burst”.
